In US10022453B2 (BAYER PHARMA AKTIENGESELLSCHAFT, priority 2013, dated 2018):

How the values were obtained:
NCI-H292 = assay: Cytotoxic effects, MTT assay; assay type: cell-based; details: Homo sapiens, 72 h incubation
Method: The cells are cultivated by a standard method, as indicated in the […] (ATCC) for the respective cell lines.
At the end of the selected incubation time, the MTT reagent is incubated with the cells for 4 h, followed by lysis of the cells overnight by addition of the detergent. […] The proliferation of cells which were not treated with test substance but were otherwise identically treated was defined as the 100% figure.

[1] = Cell permeability, flux assay using Caco-2 cells; details: human, Caco-2
Method: C-3 In Vitro Tests for Determining Cell Permeability
The cell permeability of a substance can be investigated by means of in vitro testing in a flux assay using Caco-2 cells [M. D. Troutman and D. R. Thakker, Pharm. […] For this purpose, the cells were cultured for 15-16 days on 24-well filter plates. For the determination of permeation, the respective working example was applied in a HEPES buffer to the cells either apically (A) or basally (B) and incubated for 2 hours. After 0 hours and after 2 hours, samples were taken from the cis and trans compartments. The samples were separated by HPLC (Agilent 1200, Böblingen, Germany) using reverse phase columns.
Of critical importance for toxophores which are released intracellularly is the permeability from B to A [Papp(B-A)] and the ratio of Papp(B-A) to Papp(A-B) (efflux ratio): the lower this permeability, the slower the active and passive transport processes of the substance through the monolayer of Caco-2 cells.

[2] = molecular target: T1, human kinesin spindle protein KSP/Eg5 (Homo sapiens, UniProt P52732); assay: Inhibition of the kinesin spindle protein KSP/Eg5 (ATPase, malachite green); assay type: biochemical; details: 10 nM KSP motor domain, 500 μM ATP, 2 h RT
T1 construct: The motor domain of the human kinesin spindle protein KSP/Eg5; purchased tebu-bio/Cytoskeleton Inc 027EG01-XL
T1 sequence (P52732 18-359 limits assumed): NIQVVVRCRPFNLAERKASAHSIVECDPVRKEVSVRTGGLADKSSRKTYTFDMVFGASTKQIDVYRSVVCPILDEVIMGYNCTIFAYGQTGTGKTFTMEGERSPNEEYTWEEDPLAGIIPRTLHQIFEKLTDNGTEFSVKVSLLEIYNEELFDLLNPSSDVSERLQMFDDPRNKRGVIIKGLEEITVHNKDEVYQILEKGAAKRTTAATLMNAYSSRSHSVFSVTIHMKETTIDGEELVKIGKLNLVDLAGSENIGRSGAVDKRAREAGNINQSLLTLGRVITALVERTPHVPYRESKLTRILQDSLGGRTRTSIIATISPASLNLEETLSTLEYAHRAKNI
Method: C-1b Determination of the Inhibition of the Kinesin Spindle Protein KSP/Eg5 by Selected Examples
The motor domain of the human kinesin spindle protein KSP/Eg5 (from tebu-bio/Cytoskeleton Inc, No. 027EG01-XL) is incubated at a concentration of 10 nM with 50 μg/ml taxol- (from Sigma No. T7191-5MG) stabilized microtubuli (bovine or porcine, from tebu-bio/Cytoskeleton Inc) for 5 min at RT in 15 mM PIPES, pH 6.8 (5 mM MgCl2 and 10 mM DTT, from Sigma). The freshly prepared mixture is aliquoted into a 384-well MTP. The inhibitors to be examined at concentrations of 1.0×10^−6 M to 1.0×10^−13 and ATP (final concentration 500 μM, from Sigma) are then added. Incubation is at RT for 2 h. ATPase activity is detected by detecting the inorganic phosphate formed using malachite green (from Biomol). […] The individual data of the dose-activity curve are eight-fold determinations. The IC50 values are means of three independent experiments.

SMILES | IC50 [2] [nM] | IC50 (NCI-H292) [nM] | Papp B→A at 2 h [1] [×10⁻⁶ cm/s] | efflux ratio at 2 h [1]
CC(C)(C)[C@H](c1cc(-c2cc(F)ccc2F)cn1Cc1ccccc1)N(CCCN)C(=O)CSCCC(NC(=O)CCOCCOCCOCCOCCNC(=O)CCN1C(=O)CC(SC[C@H](N)C(=O)O)C1=O)C(=O)O.O=C(O)C(F)(F)F (mixture of isomers) [Example 138, N-[19-(3(R/S)-{[(2R)-2-amino-2-carboxyethyl]sulphanyl}-2,5-dioxopyrrolidin-1-yl)-17-oxo-4,7,10,13-tetraoxa-16-azanonadecan-1-oyl]-R/S-{2-[(3-aminopropyl){(1R)-1-[1-benzyl-4-(2,5-difluorophenyl)-1H-pyrrol-2-yl]-2,2-dimethylpropyl}amino]-2-oxoethyl}homocysteine/trifluoroacetic acid (1:1)] | – | ≥ 500 | 0.17 | 1.6
CC(C)(C)[C@H](c1nc(-c2cc(F)ccc2F)cn1Cc1ccccc1)N(CC[C@H](N)C(=O)NCCNC(=O)CSC[C@H](N)C(=O)O)C(=O)CO.O=C(O)C(F)(F)F [Example 97, S-(2-{[2-({(2S)-2-Amino-4-[{(1R)-1-[1-benzyl-4-(2,5-difluorophenyl)-1H-imidazol-2-yl]-2,2-dimethylpropyl}(glycoloyl)amino]butanoyl}amino)ethyl]amino}-2-oxoethyl)-L-cysteine/trifluoroacetic acid (1:1)] | 2.13 | – | 0.56 | 2
CNC(=O)[C@@H](N)CCN(C(=O)CO)[C@@H](c1cc(-c2cc(F)ccc2F)cn1Cc1ccccc1)C(C)(C)C.O=C(O)C(F)(F)F [Example 99, Trifluoroacetic acid/(2S)-2-amino-4-[{(1R)-1-[1-benzyl-4-(2,5-difluorophenyl)-1H-pyrrol-2-yl]-2,2-dimethylpropyl}(glycoloyl)amino]-N-methylbutanamide (1:1)] | – | 0.851 | 30.3 | 8.7
CC(C)(C)[C@H](c1cc(-c2cc(F)ccc2F)cn1Cc1ccccc1)N(CC[C@H](N)C(=O)NCCNC(=O)CN1C(=O)CC(SC[C@H](N)C(=O)O)C1=O)C(=O)CO.O=C(O)C(F)(F)F (stereo partly drawn) [Example 135, S-[1-(2-{[2-({(2S)-2-Amino-4-[{(1R)-1-[1-benzyl-4-(2,5-difluorophenyl)-1H-pyrrol-2-yl]-2,2-dimethylpropyl}(glycoloyl)amino]butanoyl}amino)ethyl]amino}-2-oxoethyl)-2,5-dioxopyrrolidin-3-yl]-L-cysteine/trifluoroacetic acid (1:1)] | – | ≥ 500 | 0.78 | 4
CC(C)(C)[C@H](c1cc(-c2cc(F)ccc2F)cn1Cc1ccccc1)N(CC[C@H](N)C(=O)NCCNC(=O)CSC[C@H](N)C(=O)O)C(=O)CO.O=C(O)C(F)(F)F [Example 158, S-(2-{[2-({(2S)-2-Amino-4-[{(1R)-1-[1-benzyl-4-(2,5-difluorophenyl)-1H-pyrrol-2-yl]-2,2-dimethylpropyl}(glycoloyl)amino]butanoyl}amino)ethyl]amino}-2-oxoethyl)-L-cysteine/trifluoroacetic acid (1:1)] | – | 22.2 | 0.56 | 2.2
CC(C)(C)[C@H](c1cc(-c2cc(F)ccc2F)cn1Cc1ccccc1)N(CC[C@H](N)C(=O)NCCNC(=O)CC[C@H](N)C(=O)O)C(=O)CO.O=C(O)C(F)(F)F [Example 161, N-[2-({(2S)-2-Amino-4-[{(1R)-1-[1-benzyl-4-(2,5-difluorophenyl)-1H-pyrrol-2-yl]-2,2-dimethylpropyl}(glycoloyl)amino]butanoyl}amino)ethyl]-L-glutamine/trifluoroacetic acid (1:1)] | – | 35.5 | 0.16 | –
CC(C)(C)[C@H](c1cc(-c2cc(F)ccc2F)cn1Cc1ccccc1)N(CC[C@H](N)C(=O)NCCC(=O)NCCCC[C@H](N)C(=O)O)C(=O)CO.O=C(O)C(F)(F)F [Example 162, N^6-(N-(2S)-2-Amino-4-[{(1R)-1-[1-benzyl-4-(2,5-difluorophenyl)-1H-pyrrol-2-yl]-2,2-dimethylpropyl (glycoloyl)amino]butanoyl}-beta-alanyl)-L-lysine/trifluoroacetic acid (1:1)] | – | 121 | 0.2 | –
CC(C)(C)[C@H](c1cc(-c2cc(F)ccc2F)cn1Cc1ccccc1)N(CCCN)C(=O)CC(F)(F)F [Example 186, N-(3-Aminopropyl)-N-{(1R)-1-[1-benzyl-4-(2,5-difluorophenyl)-1H-pyrrol-2-yl]-2,2-dimethylpropyl}-3,3,3-trifluoropropanamide] | 25.3 | 9.29 | – | –
CC(C)(C)[C@H](c1cc(-c2cc(F)ccc2F)cn1Cc1ccccc1)N(CCCN)C(=O)c1ccc(F)cc1 [Example 187, N-(3-aminopropyl)-N-{(1R)-1-[1-benzyl-4-(2,5-difluorophenyl)-1H-pyrrol-2-yl]-2,2-dimethylpropyl}-4-fluorobenzamide] | 14.1 | 1.98 | – | –
CC(=O)N(CCCN)[C@@H](c1cc(-c2cc(F)ccc2F)cn1Cc1ccccc1)C(C)(C)C [Example 188, N-(3-aminopropyl)-N-{(1R)1-[1-benzyl-4-(2,5-difluorophenyl)-1H-pyrrol-2-yl]-2,2-dimethylpropyl}acetamide] | 10.1 | 0.928 | – | –
CC(C)(C)[C@H](c1cc(-c2cc(F)ccc2F)cn1Cc1ccccc1)N(CC[C@H](N)C(=O)O)C(=O)CO.Cl [Example 197, (2S)-2-Amino-4-[{(1R)-1-[1-benzyl-4-(2,5-difluorophenyl)-1H-pyrrol-2-yl]-2,2-dimethylpropyl}(glycoloyl)amino]butanoic acid hydrochloride (1:1)] | – | 7.35 | 9.3 | –

Now from value to molecule, other results behind:

IC50 [2] [nM] | SMILES | IC50 (NCI-H292) [nM] | Papp B→A at 2 h [1] [×10⁻⁶ cm/s] | efflux ratio at 2 h [1]
1.8 | CC(C)(C)[C@H](c1cc(-c2cc(F)ccc2F)cn1Cc1ccccc1)N(CCCN)C(=O)CO [Example 98, N-(3-aminopropyl)-N-{(1R)-1-[1-benzyl-4-(2,5-difluorophenyl)-1H-pyrrol-2-yl]-2,2-dimethylpropyl}-2-hydroxyacetamide] | 1.65 | – | –
4.7 | CC(C)(C)[C@@H](c1cc(-c2cc(F)ccc2F)cn1Cc1ccccc1)N(CCCN)C(=O)CO [Example 102, N-(3-Aminopropyl)-N-{(1S)-1-[1-benzyl-4-(2,5-difluorophenyl)-1H-pyrrol-2-yl]-2,2-dimethylpropyl}-2-hydroxyacetamide] | 32.9 | – | –
7.9 | CC(=O)N(CCCN)[C@@H](c1nn(-c2cc(F)ccc2F)cc1Cc1ccccc1)C(C)(C)C [Example 181, N-(3-Aminopropyl)-N-{(1R)-1-[4-benzyl-1-(2,5-difluorophenyl)-1H-pyrazol-3-yl]-2,2-dimethylpropyl}acetamide] | 7.72 | – | –
10.4 | COCC(=O)N(CCCN)[C@@H](c1nn(-c2cc(F)ccc2F)cc1Cc1ccccc1)C(C)(C)C [Example 182, N-(3-aminopropyl)-N-{(1R)-1-[4-benzyl-1-(2,5-difluorophenyl)-1H-pyrazol-3-yl]-2,2-dimethylpropyl}-2-methoxyacetamide] | 1.2 | – | –
6.21 | CC(C)(C)[C@H](c1nn(-c2cc(F)ccc2F)cc1Cc1ccccc1)N(CCCN)C(=O)c1ccc(F)cc1F [Example 183, N-(3-aminopropyl)-N-{(1R)-1-[4-benzyl-1-(2,5-difluorophenyl)-1H-pyrazol-3-yl]-2,2-dimethylpropyl}-2,4-difluorobenzamide] | 32.9 | – | –
14.3 | Cc1ccc(C(=O)N(CCCN)[C@@H](c2nn(-c3cc(F)ccc3F)cc2Cc2ccccc2)C(C)(C)C)cc1 [Example 184, N-(3-aminopropyl)-N-{(1R)-1-[4-benzyl-1-(2,5-difluorophenyl)-1H-pyrazol-3-yl]-2,2-dimethylpropyl}-4 methylbenzamide] | 27.8 | – | –
18 | CCOCC(=O)N(CCCN)[C@@H](c1nn(-c2cc(F)ccc2F)cc1Cc1ccccc1)C(C)(C)C [Example 185, N-(3-aminopropyl)-N-{(1R)-1-[4-benzyl-1-(2,5-difluorophenyl)-1H-pyrazol-3-yl]-2,2-dimethylpropyl}-2-ethoxyacetamide] | 12 | – | –
